ChEMBL document CHEMBL5356969, “Functional evaluation of an electrophilic focused library to identify a covalent inhibitor against intrinsically disordered circadian clock transcription factors” (Bioorg Med Chem Lett, 2024)
Activity calls are given as the source filed them. No cut-off for these calls is given here.

What was measured:
[1] = Inhibition of N-terminal (His)6/thioredoxin-tagged recombinant human BMAL1/CLOCK heterodimer expressed in Escherichia coli interaction with FAM-labeled E-box DNA (unknown origin) assessed as reduction in fluorescence intensity upto 1000 uM
[2] = Inhibition of N-terminal (His)6/thioredoxin-tagged recombinant human BMAL1/CLOCK heterodimer expressed in Escherichia coli interaction with 5'-FAM-labeled Per2 E-box DNA (unknown origin) assessed as reduction in fluorescence intensity at 500 uM incubated for 40 mins by FP assay relative to control
[3] = Inhibition of N-terminal (His)6/thioredoxin-tagged recombinant human BMAL1/CLOCK heterodimer expressed in Escherichia coli interaction with 5'-FAM-labeled Per2 E-box DNA (unknown origin) assessed as reduction in fluorescence intensity incubated for 40 mins by FP assay
[4] = Thiol reactivity of compound assessed as second order rate constant at 200 uM in presence of TCEP by Ellman's method; type: ADME
[5] = Inhibition of N-terminal (His)6/thioredoxin-tagged recombinant human BMAL1/CLOCK heterodimer expressed in Escherichia coli interaction with FAM-labeled E-box DNA (unknown origin) assessed as reduction in fluorescence intensity at 50 uM pretreated with iodoacetamide followed by compound treatment
[6] = Inhibition of N-terminal (His)6/thioredoxin-tagged recombinant human BMAL1/CLOCK heterodimer expressed in Escherichia coli interaction with 5'-FAM-labeled Per2 E-box DNA (unknown origin) assessed as reduction in fluorescence intensity at 500 uM incubated for 40 mins by FP assay

Row | SMILES | K [4] | inhibition [6] | also measured
1 | O=C(CCl)Nc1cc(C(F)(F)F)cc(C(F)(F)F)c1 | 4.61 10^-5/M/s | – | inhibition [1]: Active; inhibition [2]: 60%; IC50 [3]: 150 µM; inhibition [5]: inactive
2 | O=C(CCl)NC1CCCCC1 | – | inactive | –
3 | O=C1C=CC(=O)c2nccnc21 | – | – | inhibition [5]: inactive
4 | C=CC(=O)NCc1ccc(Cl)cc1 | – | inactive | –
5 | O=C(CCl)NCc1ccccc1Cl | – | inactive | –
6 | O=C(CCl)Nc1cccc(C(F)(F)F)c1 | 3.18 10^-5/M/s | – | –
7 | C=CC(=O)NCc1ccccc1Cl | – | inactive | –
8 | CC(C)NC(=O)CCl | – | inactive | –
9 | O=C(CCl)Nc1ccccc1 | – | inactive | –
10 | C=CC(=O)NC(C)C | – | inactive | –
11 | O=C(CCl)Nc1cccc2ccccc12 | – | inactive | –
12 | O=C(CCl)Nc1ccc(C(F)(F)F)cc1 | 4.47 10^-5/M/s | – | inhibition [1]: inactive
13 | O=C(CCl)NCc1ccc(Cl)cc1 | – | inactive | –
14 | C=CC(=O)Nc1cc(C(F)(F)F)cc(C(F)(F)F)c1 | 0.38 10^-5/M/s | – | IC50 [3]: 500 µM
15 | C=CC(=O)Nc1cccc2ccccc12 | – | inactive | –
16 | NC(=O)CI [IODOACETAMIDE] | 15.9 10^-5/M/s | – | inhibition [1]: inactive
17 | C=CC(=O)NC1CCCCC1 | – | inactive | –
18 | C=CC(=O)Nc1ccccc1 | – | inactive | –
19 | O=C(CCl)Nc1ccccc1C(F)(F)F | 0.63 10^-5/M/s | – | –
